US20250276994A1, “CAP ANALOG FOR THE 5'-END OF EUKARYOTIC MESSENGER RNAS” (WESTFÄLISCHE WILHELMS-UNIVERSITÄT, priority 2021, published 2025)

Assays:
Reticulocyte Lysate = test: In vitro translation of capped FLuc-mRNA and luminescence measurement; type: biochemical; conditions: 30 seconds at 365 nm
Description: In vitro translation was performed using a eukaryotic cell free protein expression kit from Reticulocyte Lysate (Invitrogen). Experiments were performed in 12.5 μL total volume containing 20 ng of the corresponding FLuc-mRNAs, 50 μM L-methionine and 150 mM potassium acetate. Samples were mixed with 8.5 μL of the reticulocyte lysate and incubated for 90 min at 30° C. Afterwards, 2 μL of the respective translation mix were used in subsequent luminescence measurement. The translation efficiency of the reporter mRNAs was assessed in a luciferase assay using Beetle-juice Luciferase Assay Firefly (pjk). Luciferase activity was determined by adding 50 μL freshly prepared substrate solution to the translation mixture. Luminescence was monitored using a Tecan Infinite® m1000pro microplate reader with an acquisition time of 3 s (duration of signal acquisition).
The photocleavable 5′-cap analog of formula (7) was used for in vitro transcription to make FLuc mRNA as described above. This was used for in vitro translation and Luminescence measurement as described above. The commercial non-modified cap analog denoted “m^7GpppG” (Jena Bioscience) was used as positive control. Samples were irradiated for 30 seconds. The ApppG capped mRNA, which is not recognized by the translation initiation factor served as negative control, which is substracted from the other samples as it represents background activity. The experiment was performed in quadruplicates. The FLuc-mRNA capped with the photocleavable 5′-cap analog of formula (7) is denoted “ONB”.
The in vitro translation assay and luminescence measurement was performed as described above using the photocleavable 5′-cap analog of formula (12). The capped mRNA was denoted “DMNB-m^7GpCH2ppG capped FLuc-mRNA”. Samples were irradiated for 30 seconds (365 nm) or 60 seconds (405 nm). The commercial non-modified cap analog denoted “m^7GpppG” (Jena Bioscience) was used as positive control and all other samples were normalized to it. The ApppG capped mRNA, which is not recognized by the translation initiation factor served as negative control, which is substracted from the other samples as it represents background activity. The experiment was performed in triplicates, except *DMNB-m7GpCH2ppG (365 nm) which was a single determination.
The in vitro translation assay in reticulocyte lysate and luminescence measurement was performed as described above using m^7GpppG capped FLuc-mRNA caged with the photocleavable 5′-cap analog of formulas (22) and (25) (denoted “DMNB m^7GpppG” and “NPOM m^7GpppG”). Samples were irradiated for 30 seconds at 365 nm. The ApppG capped mRNA, which is not recognized by the translation initiation factor served as negative control, which was substracted from the other samples as it represents background activity. The values were normalized to the non-irradiated sample with m^7GpppG capped mRNA (100%). The experiment was performed in triplicates.
The in vitro translation assay in reticulocyte lysate and luminescence measurement was performed as described above using m^7GpppG capped FLuc-mRNA with modified nucleotides m^5C and N^1methyl-pseudouridine caged with the photocleavable 5′-cap analog of formulas (22) and (25) (denoted “DMNB m^7GpppG mod” and “NPOM m^7GpppG mod”). Samples were irradiated for 30 seconds at 365 nm. The ApppG capped mRNA, which is not recognized by the translation initiation factor served as negative control, which was substracted from the other samples as it represents background activity. The values were normalized to the non-irradiated sample with m^7GpppG capped mRNA (100%). The experiment was performed in triplicates.

[1] = Irradiation of photocleavable 5′-cap analogs, LC-MS (triple quad); type: physicochemical; conditions: 30 seconds, 365 nm (3 W)
Description: For determination of mass spectra, HPLC—triple-quadrupole mass spectrometry system was used. The system consists of Agilent 1260 Infinity II with dual λ absorbance detector (G7114A) HPLC part and Agilent Ultivo mass spectrometer with JetStream ion source (type of ESI). Column which was used: Agilent Poroshell 120 EC-C18 (3.0×150/2.7 μm). The polar compounds were tested by LC method (eluent 20 mM NH40Ac buffer (pH=6)/CH3CN, gradient 0-30%, column temperature=20° C.).
Samples of the photocleavable 5′-cap analog of formula (22) were irradiated for 30 seconds with 365 nm (3 W).

HEK293T cells = test: In cell translation assay in HEK293T cells of capped GLuc-mRNA (luminescence); type: cell-based; conditions: GLuc-mRNA with regular or modified nucleotides, 30 seconds (365 nm)
From the text: In cell translation assay in HeLa and HEK293T cells with m^7GpppG capped GLuc-mRNA caged with the photocleavable 5′-cap analog of formula (22) (denoted “DMNB m^7GpppG”) with either A) regular nucleotides or B) modified nucleotides m^5C and N^1methyl-pseudouridine. Samples were irradiated for 30 seconds (365 nm). The ApppG capped mRNA, which is not recognized by the translation initiation factor served as negative control, which is substracted from the other samples as it represents background activity. The values were normalized to the non-irradiated sample with m^7GpppG capped mRNA (100%). The experiment was performed in triplicates.

HeLa cells = test: Translation and irradiation in HeLa cells of capped GLuc-mRNA (luminescence); type: cell-based; conditions: HeLa; GLuc-mRNA with regular or modified nucleotides; 30 seconds (365 nm)
Description: HeLa cells were transferred to a 96 well plate 20 h prior transfection. 30.000 cells/well were cultivated in growth Media (MEM, 10% FCS, 1% glutamine, 1% Penicillin, 1% Streptomycine, […] non-essential aminoacids). For transfection the growth media was exchanged for MEM-media with 0.6 μL Metafectene® Pro (0.3 μL) and 100 ng mRNA was added per well. 6 h after transfection of the cells the media was exchange by MEM-media, followed by irradiation and another MEM-media exchange. After 24 h post transfection the supernatant in the wells was used for further luminescence measurements. Values of the ApppG capped mRNA represent cap independent translation and were therefore subtracted from the other values.
In cell translation and irradiation in cell culture of mammalian HeLa cells was performed as described above. GLuc mRNA capped with the photocleavable 5′-cap analog of formula (12) (“DMNB”) was used and the commercial non-modified cap analog denoted “m^7GpppG” (Jena Bioscience) was used as a control. HeLa cells were either transfected with the DMNB-m^7GpCH2ppG capped mRNA (irradiated and non-irradiated before transfection) or with the natural capped mRNA (irradiated and non-irradiated before transfection). Irradiation of the mRNA containing the natural cap was performed (5 V, 600 mA) with 365 nm for 30 seconds to evaluate the resulting influence on translational efficiency. DMNB-m^7GpCH2ppG capped mRNA was irradiated in the same way or with 405 nm for 60 seconds. The ApppG capped mRNA, which is not recognized by the translation initiation factor served as negative control, which is substracted from the other samples as it represents background activity. The values were normalized to the non-irradiated m^7GpppG capped sample (100%). The experiment was performed in triplicates.
The luminescence measurement of cell culture media after translation in cells transfected with modified and non-modified GLuc mRNA was repeated using irradiation with 365 nm/405 nm for different periods of time. HeLa cells were either transfected with the GLuc mRNA capped with the photocleavable 5′-cap analog of formula (12) denoted “DMNB-m^7GpCH2ppG capped mRNA” or with the natural m^7GpppG capped mRNA. Cells transfected with the natural capped mRNA were irradiated (5 V, 600 mA) with 365 nm/405 nm for 30 s or 60 s to evaluate the resulting influence on translational efficiency. Cells transfected with DMNB-m^7GpCH2ppG capped mRNA were irradiated in the same way. The ApppG capped mRNA, which is not recognized by the translation initiation factor served as negative control, which is substracted from the other samples as it represents background activity. The values were normalized to the non-irradiated cells with m^7GpppG capped mRNA (100%). The experiment was performed in triplicates.
Luminescence measurement of cell culture media after translation of transfected modified and non-modified GLuc mRNA in cells. HeLa cells were either transfected with the NPOM-m^7GpCH2ppG capped mRNA or with the natural m^7GpppG capped mRNA. Cells transfected with the natural capped mRNA were irradiated (5 V, 600 mA) with 365 nm/405 nm for different periods of time to evaluate the resulting influence on translational efficiency. Cells transfected with NPOM-m^7GpCH2ppG capped mRNA were irradiated in the same way. The ApppG capped mRNA, which is not recognized by the translation initiation factor served as negative control, which is substracted from the other samples as it represents background activity. […]

[2] = Stability of the carbamate linkage in water and HeLa cell lysate (HPLC); type: in vitro ADME; conditions: water or HeLa cell lysate, 24 h incubation at 37° C.
Description: To investigate the stability of the carbamate linker in cellular environment the compound 15, nitropiperonylmethyl fused via a carbamate moiety to guanosine, was studied in water and cell lysate. The cell lysate was produced by ultrasonication of HeLa cells (5*10^6 cells) in 400 μL 1×PBS buffer. The compound 15, NPOM-guanosine, suspended in water or cell lysate after 24 h incubation at 37° C. was analysed by HPLC-analysis as described above.
As can be taken from the FIG. 8, the compound 15 was stable under these conditions.

[3] = Irradiation of caged nucleosides, conversion estimated by HPLC; type: physicochemical; conditions: 500 μM in water/acetone/acetonitrile; 405 nm 20-60 s or 365 nm 5-20 s; LED 3 W
Description: Conversions from caged compounds to uncaged compounds were estimated by integrating the peaks of a UV-spectrum that resulted from the HPLC analysis (Agilent infinity 1260).
When irradiating isolated N2-modified compounds, a final volume of 10 μL in double distilled water was irradiated using a LED (λmax=365 nm/405 nm/420 nm) and then analyzed by RP-HPLC.
A 500 μM solution of the compound 15, nitropiperonylmethyl fused via a carbamate moiety to guanosine (denoted “NPOM guanosine” or “caged guanosine”), in water/acetone/acetonitrile was irradiated in a 10 μL volume with either 405 nm for 20 s, 40 s or 60 s or with 365 nm for 5 s, 10 s or 20 s, respectively, using a LED power (input 3W and output 147 mW/cm^2). HPLC analysis was performed as described above.
Samples of the adenosine fused via a carbamate moiety to 7-(diethylamino)-4-(hydroxymethyl)-coumarin (DEACM) were irradiated with 450 nm. […] The peak at 21.1 min corresponds to the obtained compound and the peaks at 11.1 and 21.9 min correspond to the photo-cleavage products adenosine and DEACM-OH, respectively.

uncaging of the cap after irradiation (LC-MS) [1]	stability (HPLC) [2]	SMILES	in vitro translation (luminescence) after irradiation (Reticulocyte Lysate; capped FLuc-mRNA with modified nucleotides m^5C and N^1methyl-pseudouridine)	in vitro translation (luminescence) after irradiation (Reticulocyte Lysate; capped FLuc-mRNA, regular nucleotides)	translation in cells (luminescence) after irradiation (HEK293T cells)	translation in cells (luminescence) after irradiation (HeLa cells)	conversion of caged guanosine to guanosine upon irradiation [3]
partially uncaged	–	COc1cc(COC(=O)Nc2nc3c(c(=O)[nH]2)[n+](C)cn3[C@@H]2O[C@H](COP(=O)(O)OP(=O)(O)OP(=O)(O)OC[C@H]3O[C@@H](n4cnc5c(=O)[nH]c(N)nc54)C(O)C3O)C(O)C2O)c([N+](=O)[O-])cc1OC (stereo partly shown) [compound 22, P1-(N^2-(4,5-Dimethoxy-2-nitrobenzyl)oxycarbonyl-7-methylguanosin-5′-yl)-P3-guanosin-5′-yl triphosphate]	marked increase of translation	marked increase of translation	marked increase of translation	marked increase of translation	–
–	stable	CC(OC(=O)Nc1nc2c(ncn2[C@@H]2O[C@H](CO)[C@@H](O)[C@H]2O)c(=O)[nH]1)c1cc2c(cc1[N+](=O)[O-])OCO2 (stereo partly shown) [compound 15, N^2-(1-(6-nitrobenzo[d][1,3]dioxol-5-yl)ethyl)oxycarbonylguanosine]	–	–	–	–	cleaved by irradiation and that guanosine is regained without side products
